Assay results as given in paper PMC9770967, “Native holdup (nHU) to measure binding affinities from cell extracts” (Science Advances, 2022).
*1 amine or outer side, *2 acyl side, *3 side chain or, on linkers, in order; H or OH if unused. Where a SMILES comes first, the peptide text is derived from it. The star is where a group is joined. X1 = O=C(CCCC[C@@H]1SC[C@@H]2NC(=O)N[C@@H]21)NCCCOCCOCCOCCCN*; Suc = O=C(CCC(=O)[*:2])[*:1]

Experiments:
DLG1_PDZ_2 = experiment: nHU-MS, DLG1_PDZ_2 bait, total Jurkat extracts (Exploris MS); type: binding, human; settings: Jurkat extract; for Difference log2 / Ratio DLG1_2/MBP: DLG1_PDZ_2 bait vs MBP; for BI: DLG1_PDZ_2 bait
Source text: (§1) To further establish the repeatability and robustness of the nHU-MS assay, we repeated the experiments using a different mass spectrometer and six different PDZ domain baits taken from SCRIB (PDZ_1 and PDZ_2), discs large MAGUK scaffold protein 1 (DLG1, PDZ_1, and PDZ_2), Tax1 binding protein 3 (TAX1BP3), and SNX27 (fig. S3B and table S1). […] Of the studied baits, the PDZ domain of SNX27 turned out to be the most promiscuous with 103 statistically significant interaction partners (while 180 SNX27 binding partners were identified in total on the basis of the three independent nHU-MS experiments).
(§2) For saturating streptavidin resin with biotinylated peptides or biotin, 50 μl of streptavidin resin was mixed with biotin or peptide at 40 to 60 μM concentration in 6 to 6.5 resin volume for 60 min. To saturate streptavidin resin with biotinylated proteins, 50 μl of streptavidin resin (Streptavidin Sepharose High Performance, Cytiva) was mixed with biotinylated MBP or MBP-PDZ at 40 to 50 μM concentration in 20× resin volume for 60 min. After saturation, resins were washed a single time [10 resin volume, holdup buffer: 50 mM tris (pH 7.5), 300 mM NaCl, and 1 mM TCEP, 0.22-μm filtered] and were depleted with biotin (10 resin volume, 10 min, holdup buffer supplemented with 100 μM biotin). Last, resins were washed two times (10 resin volume, holdup buffer).
(§3) For single-point nHU experiments carried out at ~10 μM bait concentration, 50 μl of saturated streptavidin resin was mixed with 200 μl of cell lysate (2 mg/ml). Titration experiments were carried out by mixing control and bait-saturated resin and keeping the total resin volume constant; e.g., ~5 μM bait concentration can be achieved by mixing 25 μl of bait-saturated streptavidin resin with 25 μl of control resin and 200 μl of cell lysate (2 mg/ml). Control and bait-saturated resins were prepared in larger amounts, and a serial dilution was prepared with these presaturated resins to achieve different resin ratios.
(§4) Unless specified elswhere, the nHU mixture was incubated at 4°C for 2 hours. After the incubation ended, the resin was separated from the supernatant by a brief centrifugation (15 s, 2000 g). Then, half of the supernatant was removed by pipetting without any delay to avoid any resin contamination; e.g., 100 μl of supernatant is collected if 200 μl of cell lysate was used as analyte. Alternatively, the supernatant can be centrifuged an additional time to clarify it further, removing any possible resin contamination. In principle, the separation of the supernatant should be as fast as possible since any delay can perturb the equilibrium. […] Alternatively, the resin can be separated from the supernatant using filter plates (e.g., various products of Millipore, Burlington, MA) or spin columns (e.g., Pierce spin cups—cellulose acetate filter from Thermo Fisher Scientific, Waltham, MA) to achieve faster separation.
(§5) The nHU samples were precipitated with trichloroacetic acid (TCA) 20% overnight at 4°C and centrifuged at 14,000 rpm for 10 min at 4°C. The protein pellets were washed twice with 1 ml of cold acetone and air-dried. The protein extracts were solubilized in 8 M urea, reduced with 5 mM TCEP for 30 min, and alkylated with 10 mM iodoacetamide for 30 min in the dark. Double digestion was performed at 37°C with 500 ng of endoproteinase Lys-C (Wako, Richmond, USA) for 4 hours, followed by fourfold dilution and an overnight digestion with 500 ng of trypsin (Promega, Charbonnieres les Bains, France). Peptide mixtures were then desalted on a C18 spin-column and dried on a speed vacuum.
(§6) Samples were analyzed using an Ultimate 3000 nano-RSLC coupled in line via a nano-electrospray ionization source, with an LTQ-Orbitrap ELITE mass spectrometer (Thermo Fisher Scientific, San Jose, CA) or with the Orbitrap Exploris 480 mass spectrometer (Thermo Fisher Scientific, Bremen, Germany) equipped with a high field asymmetric ion mobility spectrometry (FAIMS) module. […]

TX1BP3_PDZ = experiment: nHU-MS, TX1BP3_PDZ (TAX1BP3) bait, total Jurkat extracts (Exploris MS); type: binding, human; settings: for BI / Difference log2 / Ratio TX1BP3/MBP: nHU-MS, total Jurkat extract; for BI: TX1BP3_PDZ bait vs MBP; for Difference log2: TX1BP3_PDZ vs MBP; for Ratio TX1BP3/MBP: TX1BP3_PDZ
Source text: as §1, §2, §3, §4, §5, §6

DLG1_PDZ_1 = experiment: nHU-MS, DLG1_PDZ_1 bait, total Jurkat extracts (Exploris MS); type: binding, human; settings: for Ratio DLG1_1/MBP: DLG1_PDZ_1, total Jurkat extract; for BI: DLG1_PDZ_1 bait vs MBP; for BI / pKd / Difference log2: total Jurkat extract; for pKd: DLG1_PDZ_1 bait, not filtered for significance (pKdsign N/D); for Difference log2: DLG1_PDZ_1 vs MBP
Source text: as §1, §2, §3, §4, §5, §6

SNX27_PDZ [1] = experiment: nHU-MS, SNX27_PDZ bait, total Jurkat extracts, series 2 (Exploris MS); type: binding, human
Source text: as §1, §2, §3, §4, §5, §6

SCRIB_PDZ_2 = experiment: nHU-MS, SCRIB_PDZ_2 bait, total Jurkat extracts (Exploris MS); type: binding, human; settings: nHU-MS; for Ratio SCRIB_2/MBP: SCRIB_PDZ_2, total Jurkat extract; for BI: SCRIB_PDZ_2 bait vs MBP; for BI / Difference log2: total Jurkat extract; for Difference log2: SCRIB_PDZ_2 vs MBP
Source text: as §1, §2, §3, §4, §5, §6

SCRIB_PDZ_1 = experiment: nHU-MS, SCRIB_PDZ_1 bait, total Jurkat extracts (Exploris MS); type: binding, human; settings: for Ratio SCRIB_1/MBP: SCRIB_PDZ_1, total Jurkat extract; for BI: SCRIB_PDZ_1 bait vs MBP; for Difference log2: SCRIB_PDZ_1 vs MBP
Source text: as §1, §2, §3, §4, §5, §6

[2] = target: isolated PDZ domain of SNX27; settings: 10-mer PBM peptide vs isolated PDZ domain, holdup; cited from earlier work
SCRIB PDZ1 = settings: fragmentomic, isolated PDZ domain; cited from earlier work
Source text: Supplement sciadv.ade3828_table_s1.zip/sciadv.ade3828_table_s1.xlsx, sheet "nHU-WB_SP" | column: Domain-motif fragmentomic affinities (ProfAff)

SCRIB PDZ3 = settings: fragmentomic, isolated PDZ domain; cited from earlier work
Source text: Supplement sciadv.ade3828_table_s1.zip/sciadv.ade3828_table_s1.xlsx, sheet "nHU-WB_SP"

SNX27_PDZ [3] = experiment: nHU-MS, SNX27_PDZ bait, total SH-SY5Y extracts; type: binding, human
Protocol: The empty His6-AviTag-MBP-TEV vector was used to produce biotinylated MBP for control experiments. Proteins were coexpressed with BirA biotin ligase (PET21a-BirA, Addgene, no. 20857) in Escherichia coli BL21(DE3) cells. At isopropyl-β-D-thiogalactopyranoside (IPTG) induction (1 mM IPTG at 18°C overnight), 50 μM biotin was added to the media. Harvested cells were lysed in a buffer containing 50 mM tris (pH 7.5), 150 to 300 mM NaCl, 50 μM biotin, 2 mM β-mercaptoethanol, cOmplete EDTA-free protease inhibitor cocktail (Roche, Basel, Switzerland), 1% Triton X-100, and trace amount of deoxyribonuclease, ribonuclease, and lysozyme. Lysates were frozen at −20°C before further purification steps. Lysates were sonicated and centrifuged for clarification. Expressed proteins were captured on in-house prepacked Ni-IDA (Protino Ni-IDA Resin, Macherey-Nagel, Duren, Germany) columns and were washed with at least 10 column volumes of cold wash buffer [50 mM tris (pH 7.5), 150 mM NaCl, and 2 mM β-mercaptoethanol] before elution with 250 mM imidazole. The Ni elution was collected directly on a preequilibrated amylose column (amylose high flow resin, New England Biolabs, Ipswich, MA). Amylose column was washed with 5 column volumes of cold wash buffer before fractionated elution in a buffer containing 25 mM Hepes (pH 7.5), 150 mM NaCl, 1 mM TCEP, 10% glycerol, 5 mM maltose, and cOmplete EDTA-free protease inhibitor cocktail. The concentration of proteins was determined by their ultraviolet absorption at 280 nm before aliquots were snap-frozen in liquid nitrogen and stored at −80°C.
as §2, §3
as §4, with “separation. […]” for “separation.”

| Molecule | Difference log2 (DLG1_PDZ_2) | Ratio DLG1_2/MBP (DLG1_PDZ_2) | BI (DLG1_PDZ_2) | BI (TX1BP3_PDZ) | Difference log2 (TX1BP3_PDZ) | Ratio TX1BP3/MBP (TX1BP3_PDZ) | Ratio DLG1_1/MBP (DLG1_PDZ_1) | BI (DLG1_PDZ_1) | pKd (DLG1_PDZ_1) | Difference log2 (DLG1_PDZ_1) | BI (SNX27_PDZ [1]; Jurkat, series 2, n = 3) | Difference log2 (SNX27_PDZ [1]; Jurkat, series 2, n = 3) | Ratio SNX27/MBP (SNX27_PDZ [1]; Jurkat, series 2, n = 3) | Ratio SCRIB_2/MBP (SCRIB_PDZ_2) | BI (SCRIB_PDZ_2) | Difference log2 (SCRIB_PDZ_2) | Ratio SCRIB_1/MBP (SCRIB_PDZ_1; nHU-MS) | BI (SCRIB_PDZ_1; nHU-MS, total Jurkat extract) | Difference log2 (SCRIB_PDZ_1; nHU-MS, total Jurkat extract) | other results |
| --- | --- | --- | --- | --- | --- | --- | --- | --- | --- | --- | --- | --- | --- | --- | --- | --- | --- | --- | --- | --- |
| PPIAL4H: Peptidyl-prolyl cis-trans isomerase A-like 4H | 0.01399 | 1.01 | -0.009745 | -0.05277 | 0.07419 | 1.053 | 0.8033 | 0.1967 | 4.3897 | -0.3159 | 0.2686 | -0.4513 | 0.7314 | 1.14 | -0.1396 | 0.1885 | 1.007 | -0.006606 | 0.009499 | pKd (SNX27_PDZ [1]; apparent, Jurkat, series 2, not filtered for significance, n = 3): 4.566 |
| PPIAL4C: Peptidyl-prolyl cis-trans isomerase A-like 4C | 0.05781 | 1.041 | -0.04089 | -0.05401 | 0.07589 | 1.054 | 0.9698 | 0.03017 | 3.493 | -0.0442 | -0.1115 | 0.1526 | 1.112 | 1.136 | -0.1361 | 0.1841 | 0.9925 | 0.007486 | -0.01084 | pKd (SCRIB_PDZ_1; nHU-MS, SCRIB_PDZ_1 bait, total Jurkat extract, not filtered for significance (pKdsign N/D)): 2.878 |
| PIGBOS1: Protein PIGBOS1 (MFRRLTFAQLLFATVLGIAGGVYIFQPVFEQYAKDQKELKEKMQLVQESEEKKS; UniProt A0A0B4J2F0 1-54, looked up) | 0.04834 | 1.034 | -0.03407 | -0.09136 | 0.1261 | 1.091 | 0.91 | 0.08999 | 3.996 | -0.136 | -0.08774 | 0.1213 | 1.088 | 1.081 | -0.08098 | 0.1123 | 1.118 | -0.1177 | 0.1605 |  |
| CC[C@H](C)[C@H](NC(=O)[C@H](CCC(N)=O)NC(=O)[C@H](CO)NC(=O)[C@@H](NC(=O)[C@H](CCC(N)=O)NC(=O)[C@@H](NC(=O)[C@H](CC(N)=O)NC(=O)[C@H](CCCNC(=N)N)NC(=O)[C@@H]1CCCN1C(=O)[C@H](CC(=O)O)NC(=O)CCC(=O)NCCCOCCOCCOCCCNC(=O)CCCC[C@@H]1SC[C@@H]2NC(=O)N[C@@H]21)[C@@H](C)O)[C@@H](C)O)C(=O)O [ABRAXAS2] ({X1-Suc}-DPRNTQTSQI-OH; C-terminus assumed) |  |  |  |  |  |  |  |  |  |  |  |  |  |  |  |  |  |  |  | pKd (fragmentomic affinity) [2]: 4.04; pKd_PDZ1 (SCRIB PDZ1): 4.02; pKd_PDZ3 (SCRIB PDZ3): 4.01 |
| KARS1: Lysine--tRNA ligase |  |  |  |  |  |  |  |  |  |  |  |  |  |  |  |  |  |  |  | pKapp_HU_not_filtered (SNX27_PDZ [3]; apparent, Eq. 2, not filtered for significance): 4.711; pKapp_significant_binders_HU (SNX27_PDZ [3]; apparent, Eq. 2, significant binders (1 σ, P < 0.05)): 4.711; BI_HU (SNX27_PDZ [3]; n = 6): 0.3389 |
| WDR48 |  |  |  |  |  |  |  |  |  |  |  |  |  |  |  |  |  |  |  | pKapp (nHU-MS) (TX1BP3_PDZ; TX1BP3_PDZ&Jurkat (Exploris)): 4.78; pKapp (nHU-MS) (SNX27_PDZ [1]; SNX27_PDZ&Jurkat (Exploris)): 4.78; pKapp (nHU-MS) (SCRIB_PDZ_1; SCRIB_PDZ_1&Jurkat (Exploris)): 4.749 |
